Assay results: patent US20070003672A1, “Tri-part calcium fortified compositions and methods of making the same” (priority 2005, published 2007)
Several values for one entry are separate records, joined by “and”; a condition that tells them apart may be missing. Equal entries are not always repeated.

Assay: Physical/chemical attributes (calcium, pH, titratable acidity, Brix, Brix/Acid ratio) of calcium fortified orange juice
Format: physicochemical
Set-up: unit not given here
Settings: orange juice fortified at 450 mg/100 mL calcium load
From the text: The flavor of orange juice, for example, can be characterized by a unique balance of sweetness resulting from the sugar content and tartness resulting from the acid content. A challenge of fortifying orange juice with nutritionally significant amounts of calcium is maintaining the sweet to tart balance. This balance can be expressed analytically as the Brix to acid ratio, as described above. The Brix component of the ratio is the measure of soluble solids in the beverage often determined by a refractometer. The acid component can be determined by titration with a base such as sodium hydroxide. The Brix to acid ratio is an analytical representation or measure of the sweet to tart taste balance.
A variety of calcium salts, i.e., the calcium components, were evaluated to determine their effects on the Brix-acid ratio. In this evaluation, orange juices fortified with different calcium salts were prepared at 450 mg/100 mL of calcium load. […]
Orange juices fortified with various combinations of calcium salts, i.e. calcium components, were evaluated based on physical/chemical attributes compared to unfortified orange juice.

| Compound | Calcium - Juice (48 Hours) |
| --- | --- |
| O=C[O-].O=C[O-].[Ca+2] [calcium formate] | 206 |
| O=P([O-])([O-])[O-].O=P([O-])([O-])[O-].[Ca+2].[Ca+2].[Ca+2] [tricalcium phosphate (fine), tricalcium phosphate] | 197 |
| O.O.O.O=C([O-])/C=C/C(=O)[O-].[Ca+2] [calcium fumarate trihydrate] | 202 |
| calcium ascorbate dihydrate | 195 |
| O.O=P([O-])([O-])OCC(O)CO.[Ca+2] (stereo not shown) [calcium glycerophosphate monohydrate] | 187 |
| O=P([O-])([O-])[O-].O=P([O-])([O-])[O-].[Ca+2].[Ca+2].[Ca+2] [tricalcium phosphate] | 182 |
| O.O.O=C([O-])[C@H](O)[C@@H](O)C(=O)[O-].[Ca+2] [calcium L-tartrate dihydrate] | 140 |
| O=C([O-])CC(O)(CC(=O)[O-])C(=O)[O-].O=C([O-])CC(O)(CC(=O)[O-])C(=O)[O-].[Ca+2].[Ca+2].[Ca+2] [tri-calcium citrate] | 177 |
| O=C([O-])[O-].[Ca+2] [calcium carbonate] | 200 |
| O=C([O-])CC(O)C(=O)[O-].[Ca+2] (stereo not shown) [calcium malate] | 213 |
| O.O=C([O-])CCC(=O)[O-].[Ca+2] [calcium succinate monohydrate] | 206 |
| O.O.O=P([O-])([O-])O.[Ca+2] [dicalcium phosphate dihydrate] | 181 |
| N[C@@H](CCC(=O)[O-])C(=O)[O-].O.O.O.O.[Ca+2] [calcium L-glutamate tetrahydrate] | 207 |
| calcium gluconate monohydrate | 198 |
| O=P([O-])([O-])O.[Ca+2] [dicalcium phosphate anhydrous] | 203 |
| CC(O)C(=O)[O-].CC(O)C(=O)[O-].O.O.O.O.O.[Ca+2] (stereo not shown) [calcium lactate pentahydrate] | 204 |
| O.O.[Ca+2].[Cl-].[Cl-] [calcium chloride dihydrate] | 206 |
| O.O=P([O-])(O)O.O=P([O-])(O)O.[Ca+2] [monocalcium phosphate monohydrate] | 207 |

Same assay, conditions: orange juice fortified at 450 mg/100 mL calcium load, citrate

| Compound | Calcium - Juice (48 Hours) |
| --- | --- |
| CC(O)C(=O)O.O=C(O)[C@H](O)[C@@H](O)[C@H](O)[C@H](O)CO.O=C([O-])CC(O)(CC(=O)[O-])C(=O)O.[Ca+2] [calcium lactate gluconate citrate] | 200 and 202 |
